Measured values: ChEMBL document CHEMBL2040789, “Optimization of the Central Core of Indolinone-Acetic Acid-Based CRTH2 (DP2) Receptor Antagonists” (ACS Med Chem Lett, 2011)
Each block holds one compound with its values, some of them ahead of it.

Assays:
[1] = Clearance in C57BL/6 mouse at 1 mg/kg, iv and 5 mg/kg, po; assay type: ADME, organism-based; settings: in vivo
[2] = target: T1, Prostaglandin D2 receptor 2 (Homo sapiens, UniProt Q9Y5Y4); assay: Displacement of [3H]PGD2 from human CRTH2 receptor expressed in CHO cells after 90 mins by scintillation proximity assay; assay type: cell-based
T1 sequence (Q9Y5Y4 whole entry): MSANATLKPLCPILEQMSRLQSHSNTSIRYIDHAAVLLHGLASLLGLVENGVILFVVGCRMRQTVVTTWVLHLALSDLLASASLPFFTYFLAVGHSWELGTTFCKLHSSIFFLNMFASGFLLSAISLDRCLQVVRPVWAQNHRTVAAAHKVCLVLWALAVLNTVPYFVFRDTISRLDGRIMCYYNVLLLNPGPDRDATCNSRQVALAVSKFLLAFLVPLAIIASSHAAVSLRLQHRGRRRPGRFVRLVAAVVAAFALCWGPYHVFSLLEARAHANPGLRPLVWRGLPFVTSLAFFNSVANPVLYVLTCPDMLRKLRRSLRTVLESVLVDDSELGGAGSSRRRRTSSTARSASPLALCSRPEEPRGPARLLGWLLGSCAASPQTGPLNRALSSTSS

[3] = Oral bioavailability in C57BL/6 mouse at 5 mg/kg; assay type: ADME, organism-based; settings: in vivo
Mus musculus = assay: Antiinflammatory activity in ovalbumin-sensitised Balb/c mouse assessed as reduction in ovalbumin-induced eosinophil count in bronchoalveolar lavage fluid at 1 mg/kg, ip administered 1 hr before and 7 hrs after ovalbumin challenge measured after 8 hrs by haemocytometeric analysis; assay type: functional; settings: Lung, route intraperitoneal
[4] = Oral bioavailability in Sprague-Dawley rat at 5 mg/kg; assay type: ADME, organism-based; settings: in vivo
[5] = Drug degradation in human plasma after 24 hrs; assay type: ADME, cell-free; settings: read-out: Drug degradation
[6] = Drug degradation at pH 9 after 24 hrs; assay type: physicochemical; settings: buffer, read-out: Drug degradation
[7] = Clearance in Sprague-Dawley rat at 1 mg/kg, iv and 5 mg/kg, po; assay type: ADME, organism-based; settings: in vivo
[8] = Apparent permeability of the compound in human Caco2 cells; assay type: ADME, cell-based; settings: Caco-2
[9] = Fraction unbound in human plasma; assay type: ADME, cell-free

SMILES: CN1C(=O)N(Cc2csc(-c3ccccc3)n2)C(=O)C12C(=O)N(CC(=O)O)c1ccc(Cl)cc12 (stereo unspecified)
clearance [1]: 60.5 mL/min/kg
Ki [2]: 16 nM
bioavailability [3]: < 5%

SMILES: O=C(O)CN1C(=O)C2(NC(=O)N(Cc3ccccc3F)C2=O)c2cc(Cl)ccc21 (stereo unspecified)
Ki [2]: 390 nM

SMILES: Cc1onc(-c2ccccc2)c1CN1C(=O)NC2(C1=O)C(=O)N(CC(=O)O)c1ccc(Cl)cc12 (stereo unspecified)
Ki [2]: 7 nM

SMILES: C[C@@H]1C[C@H]2[C@@H]3CCC4=CC(=O)C=C[C@]4(C)[C@@]3(F)[C@@H](O)C[C@]2(C)[C@@]1(O)C(=O)CO [DEXAMETHASONE]
inhibition in vivo at 1 mg/kg (Mus musculus): 83%

SMILES: CN1C(=O)N(Cc2nc3ccccc3s2)C(=O)C12C(=O)N(CC(=O)O)c1ccc(Cl)cc12 (stereo unspecified)
Ki [2]: 750 nM

Continued, values first:

Ki [2]: 28 nM
SMILES: O=C(O)CN1C(=O)C2(NC(=O)N(Cc3cc(Cl)ccc3F)C2=O)c2cc(Cl)ccc21 (stereo unspecified)

Ki [2]: 110 nM
SMILES: CCCN1C(=O)N(Cc2cc(Cl)ccc2F)C(=O)[C@]12C(=O)N(CC(=O)O)c1ccc(Cl)cc12

Ki [2]: 260 nM
SMILES: CCN1C(=O)N(Cc2cc(Cl)ccc2F)C(=O)[C@]12C(=O)N(CC(=O)O)c1ccc(Cl)cc12

bioavailability [4]: 5%
metabolised at 24 h [5]: < 15%
degraded at 24 h [6]: < 5%
clearance [7]: 12 mL/min/kg
Papp [8]: 1.8 ×10⁻⁶ cm/s
fraction unbound [9]: < 0.01
SMILES: O=C(O)CN1C(=O)[C@@]2(CC(=O)N(Cc3cc(Cl)ccc3F)C2)c2cc(Cl)ccc21
